# In US11253524B2 (Gilead Sciences, Inc., priority 2018, dated 2022):
# T1: human hepatic microsomal UGT1A1 (Homo sapiens, UniProt P22309)
# T1 sequence (P22309 26-533): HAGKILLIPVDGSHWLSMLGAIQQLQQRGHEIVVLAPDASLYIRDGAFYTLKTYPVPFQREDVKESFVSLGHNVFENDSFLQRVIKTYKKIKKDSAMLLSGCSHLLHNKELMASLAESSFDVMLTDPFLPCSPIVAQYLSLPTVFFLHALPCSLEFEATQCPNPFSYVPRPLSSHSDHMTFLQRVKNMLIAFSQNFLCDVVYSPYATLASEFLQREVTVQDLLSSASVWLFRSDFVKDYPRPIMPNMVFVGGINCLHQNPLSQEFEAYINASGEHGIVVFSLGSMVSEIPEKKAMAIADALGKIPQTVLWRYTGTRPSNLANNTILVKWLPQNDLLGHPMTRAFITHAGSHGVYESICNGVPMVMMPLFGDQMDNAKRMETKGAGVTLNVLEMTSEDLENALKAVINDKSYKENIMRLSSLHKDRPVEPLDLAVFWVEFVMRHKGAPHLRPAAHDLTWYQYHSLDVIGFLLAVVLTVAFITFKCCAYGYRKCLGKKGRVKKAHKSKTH
# Assays:
# [1] = biological target: T1, human hepatic microsomal UGT1A1; assay: biochemical
# Description: The conditions for the assay were determined to be linear with respect to microsomal protein concentration and incubation time. […] Microsomal UGT1A1 activity was determined in duplicate. […] Diluted microsomal fraction was incubated on ice for 15 minutes with alamethicin, magnesium chloride and SACLAC. Substrate and inhibitor were then added and the mixture warmed to 37° C. for 0.5 minute. The reaction was initiated by the addition of UDP glucuronic acid in potassium phosphate buffer. The incubation continued at 37° C. with shaking and no light exposure for 2 minutes. Reactions were terminated by addition of one volume of 200 mM ascorbic acid in methanol, containing 200 nM 2-(N-(2-ethylphenyl)methylsulfonamido)-N-(2-(pyridin-2-ylthio)ethyl)acetamide as the internal standard.
# A Shimadzu UFLC XR UPLC system was used for analysis. The column used was a Thermo-Hypersil Gold 1.9 μm C18 column (30×2.1 mm) held at 60° C. Mobile phases were; A: water containing 0.1% (v/v) formic acid, and B: acetonitrile containing 0.1% (v/v) formic acid, pumped at 0.7 mL/minute. Elution was achieved by a series of linear gradients over 2 minutes. The mass spectrometer was an Applied Biosciences SCIEX QTRAP 5500 triple quadrupole mass spectrometer with an electrospray interface operating in positive ion mode. Quantification was by metabolite/internal standard peak area ratio (PAR).
# MS/MS transitions ([M+H]+) of m/z 761.2/475.1 and 937.2/475.1 for the monoglucuronide and diglucuronide, respectively. The PAR values for the two monoglucuronides were combined for quantification.
# Reaction velocities were calculated from the rates of formation of the metabolites and were compared to those seen with the vehicle control (100% activity). IC50 values were calculated by non-linear regression using GraphPad Prism 7.03 and a sigmoidal three parameter inhibition model. […] During the testing period the inhibitory potency of atazanavir was determined four times, with each concentration tested in duplicate in each determination. The data from all runs were pooled and a global fit performed to determine the lower plateau value. […] For atazanavir, the IC50 values from the four duplicate runs were combined to generate a summary geometric mean and multiplicative standard deviation for this positive control inhibitor.
# [2] = biological target: T2, MRP2 (ABCC2) (Homo sapiens, UniProt Q92887); assay: in vitro; format: biochemical; conditions: human
# T2 construct: host or cells: membrane vesicle preparations
# T2 sequence (Q92887 whole entry): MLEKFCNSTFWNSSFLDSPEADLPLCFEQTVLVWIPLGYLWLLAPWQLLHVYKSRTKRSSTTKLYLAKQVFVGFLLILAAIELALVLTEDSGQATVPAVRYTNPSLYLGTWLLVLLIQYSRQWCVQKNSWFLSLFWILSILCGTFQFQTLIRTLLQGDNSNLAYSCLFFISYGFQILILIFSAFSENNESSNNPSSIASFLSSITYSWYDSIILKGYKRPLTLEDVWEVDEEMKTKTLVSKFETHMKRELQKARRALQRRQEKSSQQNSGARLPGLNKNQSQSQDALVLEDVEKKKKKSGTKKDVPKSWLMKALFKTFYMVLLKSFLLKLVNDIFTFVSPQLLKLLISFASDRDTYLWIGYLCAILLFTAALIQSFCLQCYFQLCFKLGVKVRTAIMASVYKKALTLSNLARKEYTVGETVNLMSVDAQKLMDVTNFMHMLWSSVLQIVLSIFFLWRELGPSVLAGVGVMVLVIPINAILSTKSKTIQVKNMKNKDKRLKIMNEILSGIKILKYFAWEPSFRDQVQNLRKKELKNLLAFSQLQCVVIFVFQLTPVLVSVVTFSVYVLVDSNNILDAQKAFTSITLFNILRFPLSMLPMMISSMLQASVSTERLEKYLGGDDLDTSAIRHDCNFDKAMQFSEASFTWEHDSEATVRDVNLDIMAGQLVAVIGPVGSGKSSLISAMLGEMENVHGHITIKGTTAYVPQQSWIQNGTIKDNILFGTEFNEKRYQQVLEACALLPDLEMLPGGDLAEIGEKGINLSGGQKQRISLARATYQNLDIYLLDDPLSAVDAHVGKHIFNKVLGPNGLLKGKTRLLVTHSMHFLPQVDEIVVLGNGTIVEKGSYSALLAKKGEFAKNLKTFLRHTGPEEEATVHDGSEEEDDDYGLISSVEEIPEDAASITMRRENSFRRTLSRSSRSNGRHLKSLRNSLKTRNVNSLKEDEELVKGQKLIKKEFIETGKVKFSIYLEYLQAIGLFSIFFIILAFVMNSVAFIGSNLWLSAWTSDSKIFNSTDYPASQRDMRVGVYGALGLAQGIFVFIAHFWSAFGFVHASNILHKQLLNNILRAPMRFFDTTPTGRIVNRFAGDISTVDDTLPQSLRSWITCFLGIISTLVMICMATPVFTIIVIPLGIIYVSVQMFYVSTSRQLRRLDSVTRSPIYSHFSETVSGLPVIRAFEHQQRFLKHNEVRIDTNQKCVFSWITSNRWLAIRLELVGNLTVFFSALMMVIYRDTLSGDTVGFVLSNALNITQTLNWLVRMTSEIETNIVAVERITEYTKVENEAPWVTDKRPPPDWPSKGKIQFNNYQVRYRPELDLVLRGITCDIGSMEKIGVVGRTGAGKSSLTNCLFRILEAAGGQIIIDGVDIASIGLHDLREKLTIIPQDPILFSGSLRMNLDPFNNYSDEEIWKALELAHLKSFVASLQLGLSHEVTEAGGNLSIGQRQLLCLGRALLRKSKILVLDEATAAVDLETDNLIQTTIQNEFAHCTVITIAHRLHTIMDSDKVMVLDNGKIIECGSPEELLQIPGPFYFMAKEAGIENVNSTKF
# Description: Cells and experimental conditions for the transporter inhibition assays are summarized below in Table 7. […] M15, M20, and M23 were prepared according to the procedures described herein. All other materials were purchased by SOLVO Biotechnology and experiments were conducted according to SOLVO Standard Operating Procedures (SOPs) of its certified ISO 9001:2008 system. Lot and product information was recorded by SOLVO Biotechnology.
# Test compounds and positive control was incubated with membrane vesicle preparations (total protein: 50 μg/well) and the model substrate in the absence or presence of ATP. Reaction mixtures were preincubated for 15 minutes at 37° C. Reactions were started by the addition of 25 μL of 12 mM MgATP or AMP assay buffer (for background controls) preincubated separately. Reactions were stopped after 5 min by the addition of 200 μL of ice-cold washing buffer and immediate filtration via glass fiber filters mounted to a 96-well plate (filter plate). The filters were washed, dried and the amount of substrate inside the filtered vesicles determined by liquid scintillation. A positive control inhibitor was tested in parallel. Control membranes lacking transporter expression were used as negative control. All assays were performed in duplicate.
# Fractional transport activities were calculated from the following equation: Activity %=(A−B)/(C−D)×100 where A is translocated amount of substrate in the presence of TA and ATP, B is translocated amount of substrate in the presence of TA, C is translocated amount of substrate in the presence of solvent and ATP, and D is translocated amount of substrate in the presence of solvent. IC50 Determination in Transporter Assays
# IC50 is defined as the test article concentration needed to inhibit the maximal transporter specific transport by 50%. IC50 values were calculated using non-linear fitting of % inhibition versus concentration to a sigmoidal curve with a variable Hill Coefficient using GraphPad Prism 5 (GraphPad Software Inc., San Diego, Calif.). If the % inhibition was less than 50% at the highest concentration tested, the IC50 was not determined. No inhibition observed (NIO) is reported for relative inhibition results <20% and no concentration dependent transport observed up to the highest concentration tested.
# [3] = substrate: C=CC1=C(C)/C(=C/c2[nH]c(Cc3[nH]c(/C=C4\NC(=O)C(C)=C4C=C)c(C)c3CCC(=O)O)c(CCC(=O)O)c2C)NC1=O; assay: cells, lysate or membranes named; conditions: other: under the assay conditions; pH 7.4
molecule,measurement,setting,value
"COC(=O)N[C@H](C(=O)N[C@@H](Cc1ccccc1)[C@@H](O)CN(Cc1ccc(-c2ccccn2)cc1)NC(=O)[C@@H](NC(=O)OC)C(C)(C)C)C(C)(C)C [atazanavir, reference compound]",IC50,[1],1.2 µM
same,"Lower plateau value, activity remaining (global best fit)","[1]; pooled data of four runs, standard error 2.94%",10.96%
"CCc1oc2ccccc2c1C(=O)c1cc(Br)c(O)c(Br)c1 [benzbromarone, reference compound]","inhibition at 5 min, 200 µM",[2],≥ 99%
human hepatic microsomal UGT1A1 (Homo sapiens) (protein) HAGKILLIPVDGSHWLSMLGAIQQLQQRGHEIVVLAPDASLYIRDGAFYTLKTYPVPFQREDVKESFVSLGHNVFENDSFLQRVIKTYKKIKKDSAMLLSGCSHLLHNKELMASLAESSFDVMLTDPFLPCSPIVAQYLSLPTVFFLHALPCSLEFEATQCPNPFSYVPRPLSSHSDHMTFLQRVKNMLIAFSQNFLCDVVYSPYATLASEFLQREVTVQDLLSSASVWLFRSDFVKDYPRPIMPNMVFVGGINCLHQNPLSQEFEAYINASGEHGIVVFSLGSMVSEIPEKKAMAIADALGKIPQTVLWRYTGTRPSNLANNTILVKWLPQNDLLGHPMTRAFITHAGSHGVYESICNGVPMVMMPLFGDQMDNAKRMETKGAGVTLNVLEMTSEDLENALKAVINDKSYKENIMRLSSLHKDRPVEPLDLAVFWVEFVMRHKGAPHLRPAAHDLTWYQYHSLDVIGFLLAVVLTVAFITFKCCAYGYRKCLGKKGRVKKAHKSKTH,Km,[3],0.98 µM
